Structures can show the parent of a compound that is named as a salt.

The target of test [1] is ErbB2 V777L (Homo sapiens (Human), UniProt P04626, V777L). Briefly: ErbB enzyme assay (CisBio HTRF-KinEASE-TK), ErbB2 V777L. The format is biochemical. Summed up: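 HTRF KinEASE-TK tyrosine-kinase read-out of substrate phosphorylation after a final 1 h at ambient temperature, from the 655/620 nm emission ratio.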
In general terms: TR-FRET usually uses a lanthanide donor and a delayed reading to cut background.

For test [2], the target named is EGFR WT (Homo sapiens (Human), UniProt P00533). Briefly: ErbB enzyme assay (CisBio HTRF-KinEASE-TK), EGFR WT. Conditions: ATP at Km (25 μM), 1 h incubation. The format is biochemical. Summed up: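 IC50 comes from a 4-parameter fit where the curve crosses 50 percent of control, using the 655/620 nm time-resolved fluorescence ratio with DMSO-only and pre-quenched references. Kinase reactions ran 1 h at ambient temperature before Sa-XL665/cryptate-antibody detection (1 h).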
EGFR WT, sequence (P00533 25-1210): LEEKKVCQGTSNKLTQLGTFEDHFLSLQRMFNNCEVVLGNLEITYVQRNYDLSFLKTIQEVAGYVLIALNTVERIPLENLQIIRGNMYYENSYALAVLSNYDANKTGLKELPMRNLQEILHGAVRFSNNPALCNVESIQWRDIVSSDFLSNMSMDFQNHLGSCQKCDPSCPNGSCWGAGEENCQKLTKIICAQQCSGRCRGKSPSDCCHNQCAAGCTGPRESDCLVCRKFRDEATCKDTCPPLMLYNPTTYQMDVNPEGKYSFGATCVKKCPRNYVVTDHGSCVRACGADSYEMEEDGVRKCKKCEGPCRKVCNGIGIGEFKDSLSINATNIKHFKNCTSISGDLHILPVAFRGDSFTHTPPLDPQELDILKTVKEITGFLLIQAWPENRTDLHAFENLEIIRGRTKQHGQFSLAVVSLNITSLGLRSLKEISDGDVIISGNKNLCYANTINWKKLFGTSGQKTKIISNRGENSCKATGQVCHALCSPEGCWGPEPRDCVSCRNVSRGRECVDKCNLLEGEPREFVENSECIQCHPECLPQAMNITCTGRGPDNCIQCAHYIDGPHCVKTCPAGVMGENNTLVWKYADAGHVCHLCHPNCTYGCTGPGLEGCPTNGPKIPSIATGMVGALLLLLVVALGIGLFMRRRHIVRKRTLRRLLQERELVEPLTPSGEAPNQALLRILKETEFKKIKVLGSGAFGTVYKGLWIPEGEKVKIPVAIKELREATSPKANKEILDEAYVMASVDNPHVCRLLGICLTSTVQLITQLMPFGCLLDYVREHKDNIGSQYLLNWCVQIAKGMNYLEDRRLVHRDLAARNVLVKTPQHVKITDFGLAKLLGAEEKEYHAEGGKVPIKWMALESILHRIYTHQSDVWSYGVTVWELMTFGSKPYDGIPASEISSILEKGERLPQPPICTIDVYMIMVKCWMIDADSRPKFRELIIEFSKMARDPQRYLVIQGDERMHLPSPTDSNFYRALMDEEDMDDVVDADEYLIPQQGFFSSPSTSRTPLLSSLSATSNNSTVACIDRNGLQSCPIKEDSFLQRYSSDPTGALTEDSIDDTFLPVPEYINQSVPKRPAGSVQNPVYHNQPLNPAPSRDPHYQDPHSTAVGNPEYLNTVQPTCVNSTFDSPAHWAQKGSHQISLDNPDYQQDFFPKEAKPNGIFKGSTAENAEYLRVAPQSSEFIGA

ErbB2 V777L, sequence (P04626 23-1255 V777L): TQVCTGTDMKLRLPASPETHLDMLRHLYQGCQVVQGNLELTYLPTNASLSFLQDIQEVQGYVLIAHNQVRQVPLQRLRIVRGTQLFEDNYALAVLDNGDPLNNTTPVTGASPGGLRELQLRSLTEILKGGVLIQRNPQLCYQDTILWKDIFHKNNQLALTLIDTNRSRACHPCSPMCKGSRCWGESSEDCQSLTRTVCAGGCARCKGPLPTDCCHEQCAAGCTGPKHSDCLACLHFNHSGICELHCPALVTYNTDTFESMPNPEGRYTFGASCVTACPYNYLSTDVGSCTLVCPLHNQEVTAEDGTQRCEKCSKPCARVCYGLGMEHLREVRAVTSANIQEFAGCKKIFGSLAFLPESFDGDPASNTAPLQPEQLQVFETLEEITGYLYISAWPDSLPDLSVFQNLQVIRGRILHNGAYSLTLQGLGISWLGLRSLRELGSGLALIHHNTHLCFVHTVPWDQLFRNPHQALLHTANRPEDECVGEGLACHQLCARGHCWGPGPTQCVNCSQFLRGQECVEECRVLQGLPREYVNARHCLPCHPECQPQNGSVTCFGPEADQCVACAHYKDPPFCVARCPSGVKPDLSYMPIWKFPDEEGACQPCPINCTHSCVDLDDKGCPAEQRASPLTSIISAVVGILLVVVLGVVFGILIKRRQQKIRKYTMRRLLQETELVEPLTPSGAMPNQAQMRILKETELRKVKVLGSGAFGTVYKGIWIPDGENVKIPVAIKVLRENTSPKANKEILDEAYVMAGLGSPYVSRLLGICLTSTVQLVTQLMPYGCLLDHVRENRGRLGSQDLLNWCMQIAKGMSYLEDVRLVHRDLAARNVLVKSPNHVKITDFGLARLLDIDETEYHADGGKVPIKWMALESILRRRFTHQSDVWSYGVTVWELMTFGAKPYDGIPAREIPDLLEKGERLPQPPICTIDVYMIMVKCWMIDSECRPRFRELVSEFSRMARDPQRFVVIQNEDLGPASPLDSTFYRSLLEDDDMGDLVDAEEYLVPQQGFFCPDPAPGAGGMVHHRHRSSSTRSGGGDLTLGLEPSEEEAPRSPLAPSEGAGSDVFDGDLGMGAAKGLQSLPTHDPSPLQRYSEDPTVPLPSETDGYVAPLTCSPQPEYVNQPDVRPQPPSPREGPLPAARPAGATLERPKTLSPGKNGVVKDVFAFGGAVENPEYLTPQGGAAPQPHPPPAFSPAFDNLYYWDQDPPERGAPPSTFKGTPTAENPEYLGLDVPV

Usually IC50 stands for the concentration that inhibits the measured activity by half. A low value points to higher potency. For the compound `C=CC(=O)N[C@H]1[C@@H]2CC[C@H]1CN(c1ncc3ncnc(Nc4ccc(Oc5ccc6c(c5)nnn6C)c(C)c4)c3n1)C2` [Compound 205, N-((1R,5S,8r)-3-(8-((3-methyl-4-((1-methyl-1H-benzo[d][1,2,3]triazol-5-yl)oxy)phenyl)amino)pyrimido[5,4-d]pyrimidin-2-yl)-3-azabicyclo[3.2.1]octan-8-yl)acrylamide], the half-maximal inhibitory concentration (IC50) in test [1] and in test [2] was at least 1000 nM in each case.
For the compound `C=CC(=O)N1CCN(c2ncc3ncnc(Nc4ccc(Oc5ccc6c(c5)nnn6C)c(C)c4F)c3n2)C2CC21` (centres unmarked) [Compound 48, 1-(5-(8-((2-fluoro-3-methyl-4-((1-methyl-1H-benzo[d][1,2,3]triazol-5-yl)oxy)phenyl)amino)pyrimido[5,4-d]pyrimidin-2-yl)-2,5-diazabicyclo[4.1.0]heptan-2-yl)prop-2-en-1-one], the IC50 in test [1] and in test [2] was below 50 nM in each case.
`C=CC(=O)N1CCN(c2ncc3ncnc(Nc4ccc(Oc5ccc6c(c5)nnn6C)c(C)c4C)c3n2)CC1` [Compound 65, 1-[4-[4-[2,3-dimethyl-4-(1-methylbenzotriazol-5-yl)oxy-anilino]pyrimido[5,4-d]pyrimidin-6-yl]piperazin-1-yl] prop-2-en-1-one]: the IC50 in test [1] and in test [2] was 100 to 500 nM in each case.
For `C=C(COC)C(=O)NC1CCN(c2ncc3ncnc(Nc4ccc(Oc5ccc6c(c5)nnn6C)c(C)c4)c3n2)CC1` [Compound 212, 2-(methoxymethyl)-N-(1-(8-((3-methyl-4-((1-methyl-1H-benzo[d][1,2,3]triazol-5-yl)oxy)phenyl)amino)pyrimido [5,4-d]pyrimidin-2-yl)piperidin-4-yl)acrylamide], the IC50 is 50 to 100 nM in test [1] and 100 to 500 nM in test [2].
Taken in the same sequence, the figures for `Cc1cc(Nc2ncnc3cnc(N4CCN(C(=O)/C=C/CN5CCCC5)CC4)nc23)ccc1Oc1ccc2c(c1)nnn2C` [Compound 52, (E)-1-(4-(8-((3-methyl-4-((1-methyl-1H-benzo[d][1,2,3]triazol-5-yl)oxy)phenyl)amino)pyrimido [5,4-d]pyrimidin-2-yl)piperazin-1-y169yrrolidineolidin-1-yl)but-2-en-1-one] were 50 to 100 nM and below 50 nM.
As for `C=CC(=O)N1C[C@H](N(C)c2ccc3ncnc(Nc4ccc(Oc5ccc6c(c5)nnn6C)c(C)c4)c3n2)C[C@H]1C` [Compound 266, 1-((2R,4R)-2-methyl-4-(methyl(4-((3-methyl-4-((1-methyl-1H-benzo[d][1,2,3]triazol-5-yl)oxy)phenyl)amino)pyrido[3,2-d]pyrimidin-6-yl)amino)pyrrolidin-1-yl)prop-2-en-1-one], the results for the 50% inhibitory concentration (IC50) in test [1] and in test [2] were 50 to 100 nM and 100 to 500 nM, respectively.
The matching figures for `C=CC(=O)N1CCN(c2ccc3ncnc(Nc4ccc(Oc5ccc6c(c5)nnn6C)c(C)c4F)c3n2)C[C@@H]1C1CC1` [Compound 271, (S)-1-(2-cyclopropyl-4-(4-((2-fluoro-3-methyl-4-((1-methyl-1H-benzo[d][1,2,3]triazol-5-yl)oxy)phenyl)amino)pyrido[3,2-d]pyrimidin-6-yl)piperazin-1-yl)prop-2-en-1-one]: 500 to 1000 nM and at least 1000 nM.
Taken in the same sequence, the figures for `C=CC(=O)N1CCN(c2ncc3ncnc(Nc4ccc(Oc5ccc6c(c5)nnn6C)c(C)c4)c3n2)[C@H](C)C1` [Compound 17, (R)-1-(3-methyl-4-(8-((3-methyl-4-((1-methyl-1H-benzo[d][1,2,3]triazol-5-yl)oxy)phenyl)amino)pyrimido[5,4-d]pyrimidin-2-yl)piperazin-1-yl)prop-2-en-1-one] were 100 to 500 nM and 500 to 1000 nM.
In the case of `C=CC(=O)N1CCN(c2ccc3ncnc(Nc4ccc(Oc5ccc6c(c5)nnn6C(F)F)c(C)c4)c3n2)CC1(C)C` [Compound 324, 1-(4-(4-((4-((1-(difluoromethyl)-1H-benzo[d][1,2,3]triazol-5-yl)oxy)-3-methylphenyl)amino)pyrido[3,2-d]pyrimidin-6-yl)-2,2-dimethylpiperazin-1-yl)prop-2-en-1-one], the IC50 in test [1] and in test [2] was 100 to 500 nM in each case.
With `C=CC(=O)N1CCN(c2ncc3ncnc(Nc4cc(C)c(Oc5ccc6c(c5)nnn6C)c(Cl)c4)c3n2)C[C@H]1C` [Compound 151, (R)-1-(4-(8-((3-chloro-5-methyl-4-((1-methyl-1H-benzo[d][1,2,3]triazol-5-yl)oxy)phenyl)amino)pyrimido[5,4-d]pyrimidin-2-yl)-2-methylpiperazin-1-yl)prop-2-en-1-one], the IC50 in test [1] and in test [2] was 100 to 500 nM throughout.
As for `C=CC(=O)N[C@@H]1CCCCN(c2ccc3ncnc(Nc4ccc(Oc5ccc6c(c5)nnn6C)c(C)c4F)c3n2)C1` [Compound 289, (R)-N-(1-(4-((2-fluoro-3-methyl-4-((1-methyl-1H-benzo[d][1,2,3]triazol-5-yl)oxy)phenyl)amino)pyrido[3,2-d]pyrimidin-6-yl)azepan-3-yl)acrylamide], the IC50 in test [1] fell in the range of 500 to 1000 nM; in test [2], 100 to 500 nM.
Taken in the same sequence, the figures for `C=CC(=O)NC1(C(F)(F)F)CCN(c2ccc3ncnc(Nc4ccc(Oc5ccc6c(c5)nnn6C)c(C)c4F)c3n2)CC1` [Compound 345, N-(1-(4-((2-fluoro-3-methyl-4-((1-methyl-1H-benzo[d][1,2,3]triazol-5-yl)oxy)phenyl)amino)pyrido[3,2-d]pyrimidin-6-yl)-4-(trifluoromethyl)piperidin-4-yl)acrylamide] were 100 to 500 nM and 100 to 500 nM.
Taken in the same sequence, the figures for `C=C(C)C(=O)N1CCN(c2ncc3ncnc(Nc4ccc(Oc5ccc6c(c5)nnn6C)c(C)c4)c3n2)CC1` [Compound 35, 2-methyl-1-(4-(8-((3-methyl-4-((1-methyl-1H-benzo[d][1,2,3]triazol-5-yl)oxy)phenyl)amino)pyrimido [5,4-d]pyrimidin-2-y1)piperazin-1-yl)prop-2-en-1-one] were 500 to 1000 nM and at least 1000 nM.
On to `Cc1cc(Nc2ncnc3cnc(N4CCN(C(=O)/C=C/CN(C)C)CC4)nc23)ccc1Oc1ccc2c(c1)nnn2C` [Compound 58, (E)-4-(dimethyl-amino)-1-(4-(8-((3-methyl-4-((1-methyl-1H-benzo[d][1,2,3]triazol-5-yl)oxy)phenyl)amino)pyrimido [5,4-d]pyrimidin-2-yl)piperazin-1-yl)but-2-en-1-one], for which the IC50 in test [1] and in test [2] was 50 to 100 nM throughout.
For `C=CC(=O)N1CCN(c2ccc3ncnc(Nc4ccc(Oc5ccc6c(c5)ncn6C(F)F)c(C)c4F)c3n2)C[C@@H]1C1CC1` [Compound 286, (S)-1-(2-cyclopropyl-4-(4-((4-((1-(difluoromethyl)-1H-benzo[d]imidazol-5-yl)oxy)-2-fluoro-3-methylphenyl)amino)pyrido[3,2-d]pyrimidin-6-yl)piperazin-1-yl)prop-2-en-1-one], the results for the IC50 in test [1] and in test [2] were 100 to 500 nM and at least 1000 nM, respectively.
The matching figures for `C=CC(=O)N1C2C=C(c3ccc4ncnc(Nc5ccc(Oc6ccc7c(c6)nnn7C)c(C)c5)c4n3)CC1CC2` (centres unmarked) [Compound 409, 1-(3-(4-((3-methyl-4-((1-methyl-1H-benzo[d][1,2,3]triazol-5-yl)oxy)phenyl)amino)pyrido[3,2-d]pyrimidin-6-yl)-8-azabicyclo[3.2.1]oct-2-en-8-yl)prop-2-en-1-one trifluoroacetate]: 50 to 100 nM and 100 to 500 nM.
As to `C=CC(=O)N1CCC(c2ccc3ncnc(Nc4ccc(Oc5ccc6c(c5)nnn6C)c(C)c4)c3n2)CC1` [Compound 108, 1-(4-(4-((3-methyl-4-((1-methyl-1H-benzo[d][1,2,3]triazol-5-yl)oxy)phenyl)amino)pyrido[3,2-d]pyrimidin-6-yl)piperidin-1-yl)prop-2-en-1-one], the IC50 in test [1] and in test [2] was 100 to 500 nM each time.
On to `C=CC(=O)N(C)[C@H]1C[C@@H](Oc2ncc3ncnc(Nc4ccc(Oc5cc(F)c6c(c5)ncn6C)c(C)c4)c3n2)C1` [Compound 387, N-((1s,3s)-3-((8-((4-((7-fluoro-1-methyl-1H-benzo[d]imidazol-5-yl)oxy)-3-methylphenyl)amino)pyrimido[5,4-d]pyrimidin-2-yl)oxy)cyclobutyl)-N-methylacrylamide], for which the IC50 in test [1] fell in the range of 50 to 100 nM; in test [2], 100 to 500 nM.
The matching figures for `C=CC(=O)NC1CCN(c2ccc3ncnc(Nc4ccc(Oc5ccc6c(c5)nnn6C)c(C)c4F)c3n2)CC1` [Compound 272, N-(1-(4-((2-fluoro-3-methyl-4-((1-methyl-1H-benzo[d][1,2,3]triazol-5-yl)oxy)phenyl)amino)pyrido[3,2-d]pyrimidin-6-yl)piperidin-4-yl)acrylamide]: 100 to 500 nM and 100 to 500 nM.
`C=CC(=O)N1CCN(c2ccc3ncnc(Nc4ccc(Oc5cc(F)c6c(c5)nnn6C)c(C)c4)c3n2)C[C@@H]1C1CC1` [Compound 290, (S)-1-(2-cyclopropyl-4-(4-((4-((7-fluoro-1-methyl-1H-benzo[d][1,2,3]triazol-5-yl)oxy)-3-methylphenyl)amino)pyrido[3,2-d]pyrimidin-6-yl)piperazin-1-yl)prop-2-en-1-one]: the half-inhibitory concentration (IC50) lay within 100 to 500 nM in test [1] and 500 to 1000 nM in test [2].
Take `C=CC(=O)N1CCN(c2ncc3ncnc(Nc4ccc(Oc5ccc6c(c5)nnn6C)c(OC)c4F)c3n2)CC1` [Compound 45, 1-(4-(8-((2-fluoro-3-methoxy-4-((1-methyl-1H-benzo[d][1,2,3]triazol-5-yl)oxy)phenyl)amino)pyrimido [5,4-d]pyrimidin-2-yl)piperazin-1-yl)prop-2-en-1-one]: the 50% inhibitory concentration (IC50) in test [1] and in test [2] was 100 to 500 nM throughout.
Turning to `C=CC(=O)N1CCN(c2ncc3ncnc(Nc4ccc(Oc5ccc6c(c5)nnn6C)c(C)c4)c3c2F)CC1` [Compound 102, 1-(4-(5-fluoro-4-((3-methyl-4-((1-methyl-1H-benzo[d][1,2,3]triazol-5-yl)oxy)phenyl)amino)pyrido[3,4-d]pyrimidin-6-yl)piperazin-1-yl)prop-2-en-1-one], the results for the IC50 in test [1] and in test [2] were 100 to 500 nM and 500 to 1000 nM, respectively.

Source of the values: patent US20250129078A1, “ERBB2 INHIBITORS” (Cogent Biosciences, Inc., priority 2023, published 2025).
